Laboratory results taken from ChEMBL document CHEMBL1201862, “PubChem BioAssay data set” (2004).
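Test compounds were applied to cells in 96-well plates for 48 hours at 5 doses. GI50 = concentration required for 50% inhibition of growth.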 Calls of active or inactive are those of the source. Cut-off read from the data, not from the text of the source: active = GI50 up to about 1.1 µM and inactive = higher.

How the values were obtained:
Assay in all cases: NCI tumour cell line growth inhibition, 48 h
[1] = system: 786-0
[2] = system: Hs-578T
[3] = system: IGROV-1
[4] = system: K562
[5] = system: LOX IMVI
[6] = system: M14
[7] = system: MDA-MB-231
[8] = system: MDA-N
[9] = system: MOLT-4
[10] = system: Malme-3M
[11] = system: NCI-H226
[12] = system: NCI-H23
[13] = system: NCI-H522
[14] = system: OVCAR-3
[15] = system: SF-268
[16] = system: SF-295
[17] = system: SK-MEL-5
[18] = system: SW-620
[19] = system: T47D
[20] = system: U-251

Measured: GI50

CCOC(=O)/C=C1\c2ccccc2C(=O)N1CC(=O)OCC
inactive: [1] > 100 µM | [2] > 100 µM | [3] > 100 µM | [4] > 100 µM | [5] 75.5 µM | [6] > 100 µM | [7] > 100 µM | [8] > 100 µM | [9] > 100 µM | [10] > 100 µM | [11] > 100 µM | [12] > 100 µM | [13] > 100 µM | [14] > 100 µM | [15] > 100 µM | [16] > 100 µM | [17] > 100 µM | [18] > 100 µM | [19] > 100 µM | [20] > 100 µM

O=C1C(c2c(O)[nH]c3ccccc23)=Nc2ccc(Br)cc21
inactive: [1] 9.62 µM | [2] 19.5 µM | [3] 3.37 µM | [4] 27.2 µM | [5] 51.8 µM | [6] 93.5 µM | [7] 23.3 µM | [8] 99.1 µM | [9] 18.9 µM | [10] > 100 µM | [11] 18.5 µM | [12] 51.8 µM | [13] 28.5 µM | [14] 99.5 µM | [15] 25.4 µM | [16] 22.4 µM | [17] > 100 µM | [18] 39.6 µM | [19] 21.8 µM | [20] 19.5 µM

COc1ccc2c(c1)[nH]c1c(/C=C/c3ccccc3)nccc12
inactive: [1] 15.1 µM | [2] 19 µM | [3] 14.7 µM | [4] 15.9 µM | [5] 18.7 µM | [6] 15.9 µM | [7] 17.5 µM | [8] 16.2 µM | [9] 7.55 µM | [10] 15.9 µM | [11] 17.4 µM | [12] 15.3 µM | [13] 12.4 µM | [14] 13.6 µM | [15] 17.7 µM | [16] 8.81 µM | [17] 14.8 µM | [18] 15.9 µM | [19] 23.5 µM | [20] 14.1 µM

COc1c(C)c(C/C=C(\C)CCCCO[Si](c2ccccc2)(c2ccccc2)C(C)(C)C)c(OC)c(OC)c1OC
inactive: [1] 22.7 µM | [2] > 100 µM | [3] 24.9 µM | [4] 28.8 µM | [5] 15.5 µM | [6] > 46.5 µM | [7] > 100 µM | [8] > 46.5 µM | [9] > 46.5 µM | [10] > 100 µM | [11] > 100 µM | [12] 19.6 µM | [13] 50.5 µM | [14] > 46.5 µM | [15] 65.5 µM | [16] > 46.5 µM | [17] 30.1 µM | [18] 45.6 µM | [19] > 83.9 µM | [20] > 46.5 µM

CC1(C)CCC(C)(C)c2cc(NC(=O)c3ccc(C(=O)O)cc3)ccc21 [TAMIBAROTENE]
inactive: [1] 31.3 µM | [2] 24.5 µM | [3] 34.8 µM | [4] 54.7 µM | [5] 22.9 µM | [6] 26.5 µM | [7] > 49.1 µM | [8] 25.6 µM | [9] 30.7 µM | [10] 17.9 µM | [11] 22.2 µM | [12] 23.2 µM | [13] 36.6 µM | [14] 22.4 µM | [15] 34.8 µM | [16] 22.6 µM | [17] 29.5 µM | [18] > 60.4 µM | [19] 33.7 µM | [20] 24.7 µM

CCCCC(=C=C(C)CO)C1CCCN1C(=O)OC(C)(C)C (stereo not given)
inactive: [1] 16.4 µM | [2] 13.8 µM | [3] 17.9 µM | [4] 17.9 µM | [5] 16.8 µM | [6] 18.5 µM | [7] 17 µM | [8] 17.6 µM | [9] 12.3 µM | [10] 15 µM | [11] 16 µM | [12] 19 µM | [13] 14.5 µM | [14] 17.5 µM | [15] 17.5 µM | [16] 16.3 µM | [17] 16.1 µM | [18] 29.2 µM | [19] 22.5 µM | [20] 17.1 µM

COc1ccc2c(CC(=O)O)cc(=O)oc2c1
inactive: [1] > 100 µM | [2] > 100 µM | [3] > 100 µM | [4] > 100 µM | [5] > 100 µM | [6] > 100 µM | [7] > 100 µM | [8] > 100 µM | [9] > 100 µM | [10] 54.8 µM | [11] > 100 µM | [12] > 100 µM | [13] > 100 µM | [14] > 100 µM | [15] > 100 µM | [16] > 100 µM | [17] > 100 µM | [18] > 100 µM | [19] > 100 µM | [20] > 100 µM
